Source: ChEMBL document CHEMBL5550189, “Discovery of GS-7682, a Novel 4'-Cyano-Modified C-Nucleoside Prodrug with Broad Activity against Pneumo- and Picornaviruses and Efficacy in RSV-Infected African Green Monkeys” (J Med Chem, 2024)
Calls of active or inactive are those of the source. No cut-off for these calls is given here.

Key:
[1] = tested on: Respiratory syncytial virus; assay: (§1) Antiviral activity against RSV A2 infected in human airway epithelium transwell culture assessed as decrease in viral RNA level by measuring log10 reduction in median viral load at 0.01 uM pretreated at apical side for 3 hrs followed by compound washout and subsequent viral infection at apical side for 3 hrs followed by removal of virus and recurrent addition of compound on day 1 and 2 at basolateral side measured on day 3 by RT-qPCR analysis; assay type: functional; settings: time 75 hrs
[2] = Drug metabolism in Cynomolgous monkey assessed as AUC (0 to 24 hrs) of (2R,3S,4R,5S)-5-(4-aminopyrrolo[2,1-f][1,2,4]triazin-7-yl)-3,4-dihydroxy-2-(hydroxymethyl)tetrahydrofuran-2-carbonitrile metabolite at 5 mg/kg, iv measured after 30 mins by LC-MS/MS analysis; assay type: ADME, organism-based, Macaca fascicularis; settings: cynomolgus monkey, in vivo, 0.5 h
Enterovirus A71 = assay: Anti-viral activity against EV-71 (H) infected in human RD cells by MTS assay; assay type: functional, organism-based; settings: Enterovirus A
[3] = Cytotoxicity against human A549 cells expressing hACE2 incubated for 28 hrs by Cell Titer Glo assay; assay type: toxicity, cell-based
[4] = tested on: Respiratory syncytial virus; assay: Antiviral activity against RSV infected in African green monkey assessed as reduction in viral load in nasal swabs at lung-deposited dose of 1.6 to 7.6 mg/kg, IT qd for 6 days; assay type: functional, organism-based; settings: dose 1.6-7.6 mg/kg, time 6.0 day
[5] = tested on: Respiratory syncytial virus; assay: as §1, with “0.25” for “0.01”, “0” for “1 and 2”, “apical” for “basolateral”; assay type: functional; settings: time 75 hrs
[6] = AUC (0 to 24 hrs) in Cynomolgous monkey at lung-deposited dose of 4 mg/kg, IT measured after 24 hrs by LC-MS/MS analysis; assay type: ADME, organism-based, Macaca fascicularis; settings: cynomolgus monkey, in vivo
[7] = Prodrug conversion in D-HBE-COPD cells assessed as ((2R,3S,4R,5S)-5-(4-aminopyrrolo[2,1-f][1,2,4]triazin-7-yl)-2-cyano-3,4-dihydroxytetrahydrofuran-2-yl)methyl tetrahydrogen triphosphate formation measured per million cells at 1 uM measured after 48 hrs by LC-MS/MS analysis; assay type: ADME, cell-based; settings: human
[8] = tested on: Respiratory syncytial virus; assay: as §1, with “0” for “1 and 2”, “apical” for “basolateral”; assay type: functional; settings: time 75 hrs
[9] = Drug metabolism in Cynomolgous monkey assessed as Cmax of (2R,3S,4R,5S)-5-(4-aminopyrrolo[2,1-f][1,2,4]triazin-7-yl)-3,4-dihydroxy-2-(hydroxymethyl)tetrahydrofuran-2-carbonitrile metabolite at lung-deposited dose of 4 mg/kg, IT measured after 24 hrs by LC-MS/MS analysis; assay type: ADME, organism-based, Macaca fascicularis; settings: cynomolgus monkey, in vivo, other
[10] = Half life in African green monkey at lung-deposited dose of 5.9 mg/kg, IT measured after 24 hrs by LC-MS/MS analysis; assay type: ADME, organism-based; settings: chlorocebus aethiops, in vivo
[11] = Cytotoxicity against human MT4 cells incubated for 5 days by Cell Titer Glo assay; assay type: toxicity, cell-based; settings: time 5 day
[12] = Drug metabolism in African green monkey assessed as AUC (0 to 24 hrs) of (2R,3S,4R,5S)-5-(4-aminopyrrolo[2,1-f][1,2,4]triazin-7-yl)-3,4-dihydroxy-2-(hydroxymethyl)tetrahydrofuran-2-carbonitrile metabolite at lung-deposited dose of 5.9 mg/kg, IT measured after 24 hrs by LC-MS/MS analysis; assay type: ADME, organism-based; settings: chlorocebus aethiops, in vivo, other
[13] = Drug metabolism in African green monkey assessed as half life of (2R,3S,4R,5S)-5-(4-aminopyrrolo[2,1-f][1,2,4]triazin-7-yl)-3,4-dihydroxy-2-(hydroxymethyl)tetrahydrofuran-2-carbonitrile metabolite at lung-deposited dose of 5.9 mg/kg, IT measured after 24 hrs by LC-MS/MS analysis; assay type: ADME, organism-based; settings: chlorocebus aethiops, in vivo, other
[14] = Prodrug conversion in human H1-HeLa cells assessed as ((2R,3S,4R,5S)-5-(4-aminopyrrolo[2,1-f][1,2,4]triazin-7-yl)-2-cyano-3,4-dihydroxytetrahydrofuran-2-yl)methyl tetrahydrogen triphosphate formation measured per million cells at 0.2 uM measured after 48 hrs by LC-MS/MS analysis; assay type: ADME, cell-based
[15] = Distribution coefficient, log D of compound measured after 30 mins by HPLC/UV analysis; assay type: physicochemical; settings: octanol/water
[16] = tested on: Respiratory syncytial virus; assay: Antiviral activity against Fluc-fused RSV A2 infected in Normal human bronchial epithelial cells incubated for 3 days by ONE Glo luciferase assay; assay type: functional, organism-based; settings: A2, Epithelial cell, 72 h
[17] = Cmax in Cynomolgous monkey at lung-deposited dose of 4 mg/kg, IT measured after 24 hrs by LC-MS/MS analysis; assay type: ADME, organism-based, Macaca fascicularis; settings: cynomolgus monkey, in vivo
[18] = Selectivity index, ratio of CC50 for human HEp-2 cells to EC50 for RSV A2 infected in human HEp-2 cells; assay type: toxicity, cell-based; settings: read-out: Ratio CC50/EC50
[19] = Half life in Cynomolgous monkey at lung-deposited dose of 4 mg/kg, IT measured after 24 hrs by LC-MS/MS analysis; assay type: ADME, organism-based, Macaca fascicularis; settings: cynomolgus monkey, in vivo
[20] = Drug concentration in lung of Cynomolgous monkey measured per gram of tissue at 5 mg/kg, iv measured after 24 hrs by LC-MS/MS analysis; assay type: ADME, organism-based, Macaca fascicularis; settings: cynomolgus monkey, in vivo
[21] = Prodrug conversion in Normal human bronchial epithelial cells assessed as ((2R,3S,4R,5S)-5-(4-aminopyrrolo[2,1-f][1,2,4]triazin-7-yl)-2-cyano-3,4-dihydroxytetrahydrofuran-2-yl)methyl tetrahydrogen triphosphate formation measured per million cells at 1 uM measured after 48 hrs by LC-MS/MS analysis; assay type: ADME, cell-based; settings: epithelial cell
[22] = tested on: Respiratory syncytial virus; assay: Antiviral activity against RSV infected in African green monkey assessed as log10 reduction in viral load in BAL at lung-deposited dose of 1.6 to 7.6 mg/kg, IT qd measured after 5 days by RT-qPCR analysis; assay type: functional; settings: dose 1.6-7.6 mg/kg, time 5 day
[23] = tested on: Respiratory syncytial virus; assay: Antiviral activity against RSV A2 infected in human HEp-2 cells incubated for 4 days by Cell Titer Glo assay; assay type: functional, organism-based; settings: A2, HEp-2, 96 h
[24] = tested on: Respiratory syncytial virus; assay: Antiviral activity against Fluc-fused RSV A2 infected in D-HBE-As cells incubated for 3 days by ONE Glo luciferase assay; assay type: functional, organism-based; settings: human respiratory syncytial virus, 72 h
[25] = Cmax in African green monkey at lung-deposited dose of 5.9 mg/kg, IT measured after 24 hrs by LC-MS/MS analysis; assay type: ADME, organism-based; settings: chlorocebus aethiops, in vivo
[26] = tested on: Respiratory syncytial virus; assay: Antiviral activity against RSV infected in African green monkey assessed as reduction in viral load in BAL at lung-deposited dose of 1.6 to 7.6 mg/kg, IT qd for 6 days measured on day 11 by RT-qPCR analysis; assay type: functional, organism-based; settings: dose 1.6-7.6 mg/kg, time 11.0 day
[27] = Drug concentration in lung of African green monkey at lung-deposited dose of 5.9 mg/kg, IT measured after 24 hrs by LC-MS/MS analysis; assay type: ADME, organism-based; settings: chlorocebus aethiops, in vivo, other
Influenza A virus = assay: Anti-viral activity against Influenza A (H1N1) infected in MDCK cells by MTS assay; assay type: functional, organism-based; settings: H
[28] = Selectivity index, ratio of CC50 for Normal human bronchial epithelial cells to EC50 for RSV A2 infected in Normal human bronchial epithelial cells; assay type: toxicity; settings: read-out: Ratio CC50/EC50
[29] = tested on: Respiratory syncytial virus; assay: Antiviral activity against RSV A2 infected in H1-HeLa cells assessed as inhibition of intracellular virus replication; assay type: functional, organism-based; settings: human respiratory syncytial virus

Q: For `COC(=O)[C@H](C)N[P@](=O)(OC[C@@]1(C#N)O[C@@H](c2ccc3c(N)ncnn23)[C@H](OC(=O)C(C)C)[C@@H]1OC(=O)C(C)C)Oc1ccccc1`, which Activity [1] is on record?
A: 0.2 log10/ml

Q: What about the AUC [2] of the same molecule?
A: 6.03 µM·h

Q: What about the EC50 (Enterovirus A71) of the same molecule?
A: 83 nM

Q: What about the CC50 at 28 h [3] of the same molecule?
A: 21100 nM

Q: And the Activity [4]?
A: inactive

Q: And the Activity [5]?
A: 1.9 log10/ml

Q: What about the AUC(0-t) at 24 h [6] of the same molecule?
A: 1.86 µM·h

Q: And the Drug metabolism [7]?
A: 85 pM

Q: And the Activity [8]?
A: 0.2 log10/ml

Q: What about the Cmax [9] of the same molecule?
A: 140 nM

Q: What about the half-life [10] of the same molecule?
A: 7.01 h

Q: And the CC50 at 120 h [11]?
A: 3240 nM

Q: And the AUC [12]?
A: 3.39 µM·h

Q: And the t1/2 [13]?
A: 14.7 h

Q: And the amount per cells [14]?
A: 0.84 pmol/10^6 cells

Q: And the logD at 0.5 h [15]?
A: 3

Q: What about the EC50 [16] of the same molecule?
A: < 3 nM

Q: And the Cmax [17]?
A: 620 nM

Q: And the selectivity ratio [18]?
A: 500

Q: What about the half-life [19] of the same molecule?
A: 13 h

Q: What about the Drug uptake [20] of the same molecule?
A: 4.28 nmol/g

Q: What about the Drug metabolism [21] of the same molecule?
A: 88.8 pM

Q: And the Activity [22]?
A: 3.6 log10/ml

Q: What about the EC50 [23] of the same molecule?
A: 46 nM

Q: And the EC50 [24]?
A: 6 nM

Q: What about the Cmax [25] of the same molecule?
A: 610 nM

Q: And the Activity [26]?
A: Active

Q: And the Drug uptake [27]?
A: 24.6 nmol

Q: What about the EC50 (Influenza A virus) of the same molecule?
A: > 2000 nM

Q: And the selectivity ratio [28]?
A: 640

Q: What about the IC50 [29] of the same molecule?
A: 84 nM
